Measurements from patent US20220373534A1, “HUMAN NASOPHARYNGEAL CARCINOMA CELLS DERIVED FROM PATIENT DERIVED XENOGRAFT AND USES THEREOF” (Chang Gung Memorial Hospital, Linkou, priority 2021, published 2022).

System: NPC PDX-B13
Test: In vivo study of tumor volume in the NPC PDX-B13 mouse model
Set-up: species or system NOD/SCID mice
Conditions: week 6, read from FIG. 4
Procedure: NPC cell lines, C666-1 (EBV positive) and HK-1 (EBV negative), were maintained in RPMI containing 10% fetal bovine serum (FBS). A cell growth assay and animal studies were conducted as described by CL Hsu et al (“Application of a Patient-Derived Xenograft Model in Cytolytic Viral Activation Therapy for Nasopharyngeal Carcinoma.” Oncotarget 6, no. 31 (2015): 31323-34).
PDX models were generated as follows: NPC tumor samples were obtained from patients with local recurrence or metastasis undergoing biopsy or surgical resection. Each sample was immediately cut into smaller pieces of approximately 3-5 mm in diameter and subcutaneously implanted into the flank regions of anesthetized NOD/SCID mice. The xenograft was excised and reimplanted in small pieces into the next passage after the tumor reached 1-2 cm in diameter.

Structure (SMILES) | inhibit PDX-B13 tumor growth (reduce tumor volume)
CN(C)C/C=C/C(=O)Nc1cc2c(Nc3ccc(F)c(Cl)c3)ncnc2cc1O[C@H]1CCOC1 [AFA, Afatinib] | approximately 30%
CC(=O)c1c(C)c2cnc(Nc3ccc(N4CCNCC4)cn3)nc2n(C2CCCC2)c1=O [PAL, Palbociclib] | ~70%
